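Protocol summary: plate cells (96-well), add compound at 5 concentrations, incubate 48 h, interpolate endpoints linearly. GI50 is the concentration that inhibits growth by half. At the TGI there is no net growth.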
How the values were obtained:
Experiment in all cases: NCI tumour cell line growth inhibition, 48 h
HCC-2998 colon = system: HCC-2998 colon
HCT-116 colon = system: HCT-116 colon
LOX IMVI melanoma = system: LOX IMVI melanoma
NCI-H23 lung = system: NCI-H23 lung
NCI-H522 lung = system: NCI-H522 lung
OVCAR-4 ovarian = system: OVCAR-4 ovarian
SNB-19 CNS = system: SNB-19 CNS
UO-31 renal = system: UO-31 renal
BT-549 breast = system: BT-549 breast

| SMILES | TGI (HCC-2998 colon) | TGI (HCT-116 colon) | TGI (LOX IMVI melanoma) | TGI (NCI-H23 lung) | TGI (NCI-H522 lung) | TGI (OVCAR-4 ovarian) | TGI (SNB-19 CNS) | TGI (UO-31 renal) | TGI (BT-549 breast) | GI50 (NCI-H522 lung) | GI50 (SNB-19 CNS) |
| --- | --- | --- | --- | --- | --- | --- | --- | --- | --- | --- | --- |
| COc1cc(C(=O)OC2CC(C)=CC[C@@]3(C)CC[C@](O)(C(C)C)C23)ccc1O (stereo partly specified) | 28.8 µM | 33.1 µM | 30.6 µM | 32.6 µM | 28 µM | 30 µM | 35.8 µM | 30.4 µM |  |  |  |
| COc1ccc(CCN2CCOCC2)cc1 | > 100 µM | > 100 µM | > 100 µM | > 100 µM | > 100 µM |  | > 100 µM | > 100 µM |  |  |  |
| CCC(=O)n1c(=O)n(-c2ccc([N+](=O)[O-])cc2)c(=O)n1C(=O)CC | > 100 µM | > 100 µM | > 100 µM | > 100 µM | > 100 µM | > 100 µM | > 100 µM | > 100 µM | > 100 µM |  |  |
| O=C1O[C@H](COC(=O)c2ccccc2)[C@@H](OC(=O)c2ccccc2)C=C1OC(=O)c1ccccc1 | > 100 µM | 32 µM | 39.3 µM | 42.6 µM | 37.8 µM | 48.7 µM | 35.6 µM | > 100 µM | 43.7 µM |  |  |
| Cc1noc(C)c1N=Nc1ccc2nonc2c1N | > 100 µM | > 100 µM | > 100 µM | > 100 µM |  | > 100 µM | > 100 µM | > 100 µM |  |  |  |
| CCCCCCCCCCOC1C(C(C)OCCCN(C)C)OC2OC3(CCCCC3)OC21 (stereo unspecified) | 29.3 µM | 26.4 µM | 10.7 µM | 23.8 µM | 34 µM | 27.5 µM | 25.5 µM | 31.7 µM |  |  |  |
| CC(C)(CO)NC(=O)c1cccc(C(=O)NC(C)(C)CO)c1Br | > 100 µM | > 100 µM | > 100 µM | > 100 µM |  | > 100 µM | > 100 µM | > 100 µM | > 100 µM |  |  |
| CCC(c1nc2ccccc2c(=O)n1NC(=O)C(C)(C)C)C1(O)CCCCC1 (stereo unspecified) |  | > 100 µM |  | > 100 µM | > 100 µM | > 100 µM | > 100 µM | > 100 µM | > 100 µM |  |  |
| COc1ccc(-c2cc(-c3ccc(Nc4ccnc5cc(C(F)(F)F)ccc45)cc3)[nH]c(=O)c2C#N)cc1 | > 100 µM | > 100 µM | > 100 µM | > 60.8 µM | > 100 µM | > 100 µM | 56.7 µM |  | > 94.9 µM |  |  |
| CN(C)S(=O)(=O)c1cccc(-c2nc3sc4c(c3c(=O)[nH]2)CCCC4)c1 |  |  |  |  | > 100 µM |  | > 100 µM |  |  | > 100 µM | 2.91 µM |
| CCCCCCCCCCCCCCCCCCNC(=S)/N=C/c1c(O)cc(C)oc1=O | 39 µM | > 100 µM | > 100 µM | 47.8 µM |  | 80 µM | 52.1 µM | 39.4 µM | 40.6 µM |  |  |
| O=c1[nH]c2cc([N+](=O)[O-])c(N(CCO)CCO)c([N+](=O)[O-])c2[nH]1 |  | 87.5 µM | > 100 µM | > 100 µM | > 100 µM | > 100 µM | > 100 µM | > 100 µM | 51.7 µM |  |  |

Source: PubChem BioAssay (NCI)
